Earlier results as cited in US7335681B2, “Amino ceramide-like compounds and therapeutic methods of use” (The Regents of the University of Michigan, priority 2001, dated 2008).

Key:
[1] = system: Ehrlich ascites carcinoma cells
E. coli = conditions: PDMP treatment
GlcCer = conditions: in vivo

Compound: CCCCCCCCCC(=O)N[C@H](CN1CCOCC1)[C@H](O)c1ccccc1 [PDMP, 1R-phenyl-2R-decanoylamino-3-morpholino-1-propanol]
- cellular content of PKC (PKC): lower the cellular content of PKC
- antitumor effect in mice [1]: cure mice of cancer
- adherence of E. coli to mammalian cells (E. coli): reduces the adherence

Compound: CN(C)CCCN1c2ccccc2Sc2ccc(Cl)cc21 [chlorpromazine]
- tissue levels of GlcCer (GlcCer): lower tissue levels of GlcCer
